≈ marks a conversion by molar mass, not a printed value.
Experiments:
Test in all cases: ≥ marks a high value that may be exact or a test limit, other limits are often not marked, values filed in µg/mL are converted to µM
[1] = test system: Escherichia coli KCTC 1682
[2] = test system: Staphylococcus epidermidis KCTC 1917
[3] = test system: Pseudomonas aeruginosa KCTC 1637
[4] = test system: Staphylococcus aureus KCTC 1621
[5] = test system: Bacillus subtilis KCTC 3068
[6] = test system: Salmonella typhimurium KCTC 1926
Candida albicans = test system: Candida albicans
Staphylococcus aureus = test system: Staphylococcus aureus
Escherichia coli = test system: Escherichia coli

SMILES | MIC [1] [µM] | MIC [2] [µM] | MIC [3] [µM] | MIC [4] [µM] | MIC [5] [µM] | MIC [6] [µM] | MIC (Candida albicans) [µM] | MIC (Staphylococcus aureus) [µM] | MIC (Escherichia coli) [µM]
CC[C@H](C)[C@H](NC(=O)[C@H](CCCN=C(N)N)NC(=O)[C@H](CCC(N)=O)NC(=O)[C@@H](NC(=O)[C@@H](NC(=O)[C@H](CCCN=C(N)N)NC(=O)[C@@H](N)CCCCN)[C@@H](C)CC)C(C)C)C(=O)N[C@@H](CCCCN)C(=O)N[C@@H](CC(=O)O)C(=O)N[C@@H](Cc1c[nH]c2ccccc12)C(=O)N[C@@H](CC(C)C)C(=O)N[C@@H](CCCN=C(N)N)C(N)=O [KRIVQRIKDWLR] | 2 (≈ 3.22 µg/mL) | 1 (≈ 1.61 µg/mL) | 8 (≈ 12.9 µg/mL) | 2 (≈ 3.22 µg/mL) | 4 (≈ 6.44 µg/mL) | 4 (≈ 6.44 µg/mL) |  |  | 
CC(=O)N[C@@H](CCCCN)C(=O)N[C@@H](Cc1ccc(O)cc1)C(=O)N[C@H](C(=O)NCC(=O)N[C@@H](CCCCN)C(=O)N[C@@H](CS)C(=O)N[C@@H](CCCCN)C(=O)N[C@H](C(=O)N[C@@H](CCCCN)C(=O)N[C@@H](CCCCN)C(=O)N[C@@H](CC(N)=O)C(=O)N[C@@H](CCCCN)C(=O)N[C@@H](CS)C(=O)N[C@@H](CCCCN)C(N)=O)[C@@H](C)O)[C@@H](C)O [KYTGKCKTKKNKCK] |  |  |  |  |  |  | 1.3 (≈ 2.21 µg/mL) |  | 
CC[C@H](C)[C@H](NC(=O)[C@H](C)NC(=O)[C@H](CCCN=C(N)N)NC(=O)[C@@H]1CCCN1C(=O)[C@H](CC(C)C)NC(=O)[C@H](CC(N)=O)NC(=O)[C@H](Cc1ccc(O)cc1)NC(=O)CNC(=O)[C@H](C)NC(=O)[C@@H](NC(=O)[C@@H](NC(=O)[C@@H](NC(=O)[C@H](CCCN=C(N)N)NC(=O)[C@@H](NC(=O)[C@@H](NC(=O)[C@H](CC(C)C)NC(=O)[C@H](Cc1ccc(O)cc1)NC(=O)[C@H](Cc1c[nH]c2ccccc12)NC(=O)[C@@H](NC(=O)[C@H](CCCN=C(N)N)NC(=O)[C@H](CCCCN)NC(=O)[C@@H](NC(=O)[C@@H](N)CCCN=C(N)N)C(C)C)C(C)C)C(C)C)[C@@H](C)CC)[C@@H](C)O)C(C)C)[C@@H](C)CC)C(=O)N[C@@H](CCCCN)C(=O)N[C@@H](CCCCN)C(=O)N[C@@H](CCCCN)C(=O)O [RVKRVWYLVIRTVIAGYNLPRAIKKK] | 4 (≈ 12.6 µg/mL) | 8 (≈ 25.1 µg/mL) | 8 (≈ 25.1 µg/mL) | 8 (≈ 25.1 µg/mL) | 8 (≈ 25.1 µg/mL) | 8 (≈ 25.1 µg/mL) |  |  | 
CC[C@H](C)[C@H](NC(=O)[C@H](CCCCN)NC(=O)[C@H](CS)NC(=O)[C@H](C)NC(=O)[C@@H](NC(=O)[C@H](Cc1ccccc1)NC(=O)[C@H](CCCCN)NC(=O)[C@H](CC(C)C)NC(=O)[C@H](CCCCN)NC(=O)[C@@H](NC(=O)[C@H](CCCCN)NC(=O)[C@H](CCCCN)NC(=O)[C@H](CC(C)C)NC(=O)[C@H](CC(N)=O)NC(=O)[C@H](CCCCN)NC(=O)[C@H](CC(C)C)NC(=O)[C@@H](NC(=O)[C@H](CO)NC(=O)[C@H](CC(C)C)NC(=O)[C@H](CCSC)NC(=O)[C@@H](N)CO)C(C)C)C(C)C)C(C)C)C(=O)N[C@@H](CC(N)=O)C(=O)N[C@@H](CCCCN)C(=O)N[C@@H](CCC(N)=O)C(=O)N[C@@H](CS)C(=O)O [SMLSVLKNLKKVKLKFVACKINKQC] |  |  |  |  |  |  | > 200 | > 200 | 200 (≈ 573 µg/mL)

Now from value to molecule:

MIC [1] [µM] | MIC [2] [µM] | MIC [3] [µM] | MIC [4] [µM] | MIC [5] [µM] | MIC [6] [µM] | MIC (Candida albicans) [µM] | MIC (Staphylococcus aureus) [µM] | MIC (Escherichia coli) [µM] | SMILES
5.97 (≈ 9.99 µg/mL) | 2.98 (≈ 5 µg/mL) | 5.97 (≈ 9.99 µg/mL) | 5.97 (≈ 9.99 µg/mL) | 5.97 (≈ 9.99 µg/mL) | 2.98 (≈ 5 µg/mL) |  |  |  | CC[C@H](C)[C@H](N)C(=O)N[C@@H](CC(C)C)C(=O)N1CCC[C@H]1C(=O)N[C@@H](Cc1c[nH]c2ccccc12)C(=O)N[C@@H](CCCCN)C(=O)N[C@@H](CCCCN)C(=O)N1CCC[C@H]1C(=O)N[C@@H](CCCCN)C(=O)N[C@@H](CCCCN)C(=O)N1CCC[C@H]1C(=O)N[C@@H](CCCCN)C(=O)N[C@@H](CCCN=C(N)N)C(=O)N[C@@H](CCCN=C(N)N)C(N)=O [ILPWKKPKKPKRR]
2.7 (≈ 5 µg/mL) | 2.7 (≈ 5 µg/mL) | 10.8 (≈ 20 µg/mL) | 2.7 (≈ 5 µg/mL) | 5.41 (≈ 9.99 µg/mL) | 2.7 (≈ 5 µg/mL) |  |  |  | CC[C@H](C)[C@H](N)C(=O)N[C@@H](CC(C)C)C(=O)N1CCC[C@H]1C(=O)N[C@@H](Cc1c[nH]c2ccccc12)C(=O)N[C@@H](CCCCN)C(=O)N[C@@H](Cc1c[nH]c2ccccc12)C(=O)N1CCC[C@H]1C(=O)N[C@@H](CCCCN)C(=O)N[C@@H](Cc1c[nH]c2ccccc12)C(=O)N1CCC[C@H]1C(=O)N[C@@H](Cc1c[nH]c2ccccc12)C(=O)N[C@@H](CCCN=C(N)N)C(=O)N[C@@H](CCCN=C(N)N)C(N)=O [ILPWKWPKWPWRR]
4 (≈ 8.31 µg/mL) | 4 (≈ 8.31 µg/mL) | 8 (≈ 16.6 µg/mL) | 4 (≈ 8.31 µg/mL) | 2 (≈ 4.15 µg/mL) | 4 (≈ 8.31 µg/mL) |  |  |  | C[C@@H](O)[C@H](NC(=O)[C@H](CCCCN)NC(=O)[C@H](Cc1c[nH]c2ccccc12)NC(=O)[C@H](Cc1c[nH]c2ccccc12)NC(=O)[C@@H](NC(=O)[C@H](CCCCN)NC(=O)[C@@H](N)CCCCN)[C@@H](C)O)C(=O)N[C@@H](Cc1c[nH]c2ccccc12)C(=O)N[C@@H](Cc1c[nH]c2ccccc12)C(=O)N[C@H](C(=O)N[C@@H](CCCCN)C(=O)N[C@@H](Cc1c[nH]c2ccccc12)C(=O)N[C@@H](CO)C(=O)N[C@@H](CCC(N)=O)C(=O)N1CCC[C@H]1C(=O)O)[C@@H](C)O [KKTWWKTWWTKWSQP]
